We go through two compounds from paper PMC8360000 (Clinical Pharmacology and Therapeutics, 2021).

Each structure is given as a SMILES string. Where “and” joins values, the source holds several entries; their conditions need not be identical. Equal values may be shown once.

Series [1] has as its system P‐gp. Description: IVIVE of intrinsic CL and Kp,uu,brain using REF and BMEC protein content. On the set-up: species or system human. The note with it: for Kp,uu,brain,pred(method 2): 5C model.
Series [2] relates to P‐gp. Nature of the series: IVIVE of Kp,uu,brain from in vitro ER using REF. Details: species or system human. The note with it: for Kp,uu,brain,pred(method 1) Mean ± SD / Kp,uu,brain,pred(method 1) Individual: predicted from in vitro ER and REF; for Kp,uu,brain,pred(method 1) Mean ± SD: four experiments; for Kp,uu,brain,pred(method 1) Individual: individual experiments 1-4.
Series [3] concerns P-gp. Nature of the series: IVIVE of Kp,uu,brain from in vitro ER using REF. On the set-up: species or system human. The note with it: human, brain (unbound, Kp,uu).
Series [4] relates to P‐gp. The note with it: humans, cyclosporine as inhibitor; cited from earlier work.

Turning to `CCN(CC)CCNC(=O)c1cc(Cl)c(N)cc1OC` [Metoclopramide, metoclopramide], the “Kp,uu,brain,pred(method 2)” value in series [1] (mean ± standard deviation) was found to be 0.61 ± 0.10. Besides, in series [2], the “Kp,uu,brain,pred(method 1) Mean ± SD” value is 0.74 ± 0.08; the “Kp,uu,brain,pred(method 1) Individual” value was 0.74 and 0.76 and 0.63 and 0.81. For the same compound, in series [3], the Kp uu amounted to 1.3. For the same compound, the “K1 (cerebral uptake CL), impact of P‐gp inhibition” value in series [4] is on record as “not impacted”.

As to `CNC(=O)C(CCN1CCC(O)(c2ccc(Cl)cc2)CC1)(c1ccccc1)c1ccccc1` [N‐desmethyl loperamide], the “Kp,uu,brain,pred(method 2)” value in series [1] (mean ± standard deviation) is given as 0.020 ± 0.014. Also, the “IVIV Extrapolated CLi” value in series [1] (mean ± standard deviation, scaled with BMEC protein content) was 287 ± 88 mL/min. Moreover, in series [1] (method 2), the “P/O (predicted/observed value)” value is given as 0.44. Further, in series [2] (method 1), the “P/O (predicted/observed Kp,uu,brain ratio)” value is reported as 0.92. In addition, in series [2], the “Kp,uu,brain,pred(method 1) Mean ± SD” value is 0.043 ± 0.018; the “Kp,uu,brain,pred(method 1) Individual” value is 0.058 and 0.035 and 0.056 and 0.021.
